{"source": "ChEMBL document CHEMBL1201862", "about": "“PubChem BioAssay data set” (2004)", "key": {"[1]": {"assay": "bead-based luminescence quenchers, dual-tagged ARNT – biochemical, AlphaScreen, cherry-pick, artefact control for ARNT-TACC3 interaction inhibitor project, dose response (AID 651705);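 also: AlphaScreen bead proximity signal that flags compounds interfering with the detection technology; potency reflects signal decrease which marks the compound as an assay artifact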", "type": "functional"}, "[2]": {"molecular_target": "Potassium voltage-gated channel subfamily KQT member 2 (Rattus norvegicus, UniProt O88943)", "sequence (O88943 whole entry)": "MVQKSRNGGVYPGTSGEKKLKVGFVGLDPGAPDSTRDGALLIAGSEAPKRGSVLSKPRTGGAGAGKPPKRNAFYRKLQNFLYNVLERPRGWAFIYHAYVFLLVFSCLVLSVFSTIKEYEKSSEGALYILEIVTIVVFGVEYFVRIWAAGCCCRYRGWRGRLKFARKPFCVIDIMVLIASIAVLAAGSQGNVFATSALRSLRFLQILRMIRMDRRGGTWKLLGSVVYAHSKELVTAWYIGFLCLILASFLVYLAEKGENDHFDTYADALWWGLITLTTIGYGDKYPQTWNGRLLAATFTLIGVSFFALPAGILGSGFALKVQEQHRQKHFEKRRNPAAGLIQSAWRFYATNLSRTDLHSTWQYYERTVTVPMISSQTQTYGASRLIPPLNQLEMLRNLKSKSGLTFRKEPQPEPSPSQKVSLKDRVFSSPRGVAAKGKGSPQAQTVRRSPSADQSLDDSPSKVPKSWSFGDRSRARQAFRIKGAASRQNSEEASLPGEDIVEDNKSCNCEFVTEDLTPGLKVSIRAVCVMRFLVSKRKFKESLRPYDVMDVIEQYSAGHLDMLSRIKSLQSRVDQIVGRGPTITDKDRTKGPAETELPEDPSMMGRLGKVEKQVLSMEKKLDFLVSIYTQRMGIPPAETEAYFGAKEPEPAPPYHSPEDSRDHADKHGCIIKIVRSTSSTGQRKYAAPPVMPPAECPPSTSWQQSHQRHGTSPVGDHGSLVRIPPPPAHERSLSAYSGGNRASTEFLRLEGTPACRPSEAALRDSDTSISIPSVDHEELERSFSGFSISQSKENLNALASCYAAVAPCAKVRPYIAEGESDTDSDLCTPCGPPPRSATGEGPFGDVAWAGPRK", "assay": "blockers of KCNQ2 channel current – cell-based, automated electrophysiology, set II, rat KCNQ2, dose response (AID 588637)", "type": "functional"}, "Interleukin-8": {"molecular_target": "T1, Interleukin-8 (Homo sapiens, UniProt P10145)", "T1 sequence (P10145 whole entry)": "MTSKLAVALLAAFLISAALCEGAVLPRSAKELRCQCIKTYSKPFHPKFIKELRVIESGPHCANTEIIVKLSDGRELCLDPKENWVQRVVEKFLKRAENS", "assay": "Dose Response confirmation of uHTS small molecule hits for cystic fibrosis induced NFkb Inhibitors in a PAF-induced IL8 counterscreen.", "type": "functional", "settings": "read-out: IC50_Mean"}, "Protein RecA": {"molecular_target": "T2, Protein RecA (Mycobacterium tuberculosis, UniProt P9WHJ3)", "T2 sequence (P9WHJ3 whole entry)": "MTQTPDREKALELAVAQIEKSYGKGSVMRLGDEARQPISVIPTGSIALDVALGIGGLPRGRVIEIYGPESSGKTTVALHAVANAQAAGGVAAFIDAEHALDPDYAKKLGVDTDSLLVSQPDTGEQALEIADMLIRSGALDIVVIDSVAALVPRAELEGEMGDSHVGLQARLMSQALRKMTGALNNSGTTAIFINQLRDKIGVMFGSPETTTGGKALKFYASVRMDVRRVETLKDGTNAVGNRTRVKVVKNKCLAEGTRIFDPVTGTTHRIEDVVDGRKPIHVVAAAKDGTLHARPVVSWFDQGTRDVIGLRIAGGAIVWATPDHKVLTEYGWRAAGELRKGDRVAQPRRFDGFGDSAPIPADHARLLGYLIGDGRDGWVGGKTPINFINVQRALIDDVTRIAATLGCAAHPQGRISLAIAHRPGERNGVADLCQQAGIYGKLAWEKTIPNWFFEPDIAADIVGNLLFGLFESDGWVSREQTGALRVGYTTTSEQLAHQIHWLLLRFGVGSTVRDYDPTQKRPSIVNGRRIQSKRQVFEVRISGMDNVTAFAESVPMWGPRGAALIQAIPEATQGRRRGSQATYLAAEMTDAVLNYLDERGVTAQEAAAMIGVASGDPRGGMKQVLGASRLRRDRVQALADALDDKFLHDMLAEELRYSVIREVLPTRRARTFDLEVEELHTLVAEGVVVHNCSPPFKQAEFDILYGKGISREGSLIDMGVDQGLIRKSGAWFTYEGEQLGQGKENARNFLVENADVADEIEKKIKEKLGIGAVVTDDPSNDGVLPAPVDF", "assay": "Fluorescence Cell-Free Homogeneous Dose Retest to Identify Inhibitors of RecA-Intein Splicing Activity. [Related pubchem assays (depositor defined):AID2097, AID2223, AID489010, AID492950]", "type": "functional"}, "[3]": {"assay": "inhibition of ARNT PAS-B/TACC3 complex formation – biochemical, AlphaScreen, cherry-picked samples, confirmation (AID 651703);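 also: His-tagged ARNT PAS-B domain paired with GST-TACC3 E629A dimer coactivator fragment; potency of inhibitors that break up the complex and lower AlphaScreen signal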", "type": "functional, Homo sapiens"}, "[4]": {"molecular_target": "T3, Replicative DNA helicase DnaB (Mycobacterium tuberculosis, UniProt P9WMR3)", "T3 sequence (P9WMR3 whole entry)": "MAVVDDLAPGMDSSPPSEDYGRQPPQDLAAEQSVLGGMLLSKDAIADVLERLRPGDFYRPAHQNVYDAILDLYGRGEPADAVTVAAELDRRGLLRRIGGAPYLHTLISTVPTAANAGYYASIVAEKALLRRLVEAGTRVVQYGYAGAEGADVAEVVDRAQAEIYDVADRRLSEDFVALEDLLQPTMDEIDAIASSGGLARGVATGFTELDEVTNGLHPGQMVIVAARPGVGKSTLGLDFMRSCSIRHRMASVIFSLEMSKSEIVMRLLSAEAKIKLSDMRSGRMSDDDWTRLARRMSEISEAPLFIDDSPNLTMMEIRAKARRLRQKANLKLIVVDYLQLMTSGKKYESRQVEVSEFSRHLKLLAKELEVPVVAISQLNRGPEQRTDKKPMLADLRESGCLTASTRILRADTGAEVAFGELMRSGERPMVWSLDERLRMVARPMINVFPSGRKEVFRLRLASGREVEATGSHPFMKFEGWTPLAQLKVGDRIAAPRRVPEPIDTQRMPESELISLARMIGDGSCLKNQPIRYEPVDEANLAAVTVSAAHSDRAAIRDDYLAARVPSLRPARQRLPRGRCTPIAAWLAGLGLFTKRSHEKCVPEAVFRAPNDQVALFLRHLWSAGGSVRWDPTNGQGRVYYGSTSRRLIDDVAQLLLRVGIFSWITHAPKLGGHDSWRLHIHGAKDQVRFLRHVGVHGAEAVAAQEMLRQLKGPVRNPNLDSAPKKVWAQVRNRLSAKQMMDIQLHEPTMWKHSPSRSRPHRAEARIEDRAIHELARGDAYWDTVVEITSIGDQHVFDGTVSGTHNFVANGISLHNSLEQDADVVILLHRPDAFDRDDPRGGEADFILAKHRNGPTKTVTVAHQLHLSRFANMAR", "assay": "DnaB intein splicing inhibitors, dose response, biochemical, cell-free fluorescence (AID 449749)", "type": "functional"}}, "note": "The source made the active and inactive calls."}
{"smiles": "Cc1cccc(NC(=O)CSc2cccc3cccnc23)c1", "values": [{"measurement": "AC50", "setting": "[1]", "result": "76.9 µM (active)"}]}
{"smiles": "O=C(OCC(=O)N(CCc1ccccc1)Cc1ccccc1)c1ccccc1O", "values": [{"measurement": "IC50", "setting": "[2]", "result": "1.83 µM (active)"}]}
{"smiles": "OCCN1CCN(c2ncnc3ccc(Br)cc23)CC1", "values": [{"measurement": "IC50", "setting": "Interleukin-8", "result": "22 µM (inactive)"}]}
{"smiles": "COC(=O)CC1=NN(c2nc(C)cc(C)n2)C(=O)C1", "values": [{"measurement": "EC50", "setting": "Protein RecA", "result": "> 380 µM (inactive)"}, {"measurement": "AC50", "setting": "[3]", "result": "123 µM (active)"}, {"measurement": "AC50", "setting": "[4]", "result": "103 µM (active)"}]}
